# Measured values as given in publication PMC10485979, “CUDC-907, a dual PI3K/histone deacetylase inhibitor, increases meta-iodobenzylguanidine uptake (^123/131I-mIBG) in vitro and in vivo: a promising candidate for advancing theranostics in neuroendocrine tumors” (Journal of Translational Medicine, 2023).
# B1: dopamine transporter (DAT) (Homo sapiens) (protein)
# chain: MSKSKCSVGLMSSVVAPAKEPNAVGPKEVELILVKEQNGVQLTSSTLTNPRQSPVEAQDRETWGKKIDFLLSVIGFAVDLANVWRFPYLCYKNGGGAFLVPYLLFMVIAGMPLFYMELALGQFNREGAAGVWKICPILKGVGFTVILISLYVGFFYNVIIAWALHYLFSSFTTELPWIHCNNSWNSPNCSDAHPGDSSGDSSGLNDTFGTTPAAEYFERGVLHLHQSHGIDDLGPPRWQLTACLVLVIVLLYFSLWKGVKTSGKVVWITATMPYVVLTALLLRGVTLPGAIDGIRAYLSVDFYRLCEASVWIDAATQVCFSLGVGFGVLIAFSSYNKFTNNCYRDAIVTTSINSLTSFSSGFVVFSFLGYMAQKHSVPIGDVAKDGPGLIFIIYPEAIATLPLSSAWAVVFFIMLLTLGIDSAMGGMESVITGLIDEFQLLHRHRELFTLFIVLATFLLSLFCVTNGGIYVFTLLDHFAAGTSILFGVLIEAIGVAWFYGVGQFSDDIQQMTGQRPSLYWRLCWKLVSPCFLLFVVVVSIVTFRPPHYGAYIFPDWANALGWVIATSSMAMVPIYAAYKFCSLPGSFREKLAYAIAPEKDRELVDRGEVRQFTLRHWLKV
# How the values were obtained:
# [1] = molecular target: T1, norepinephrine transporter (NET) (Homo sapiens, UniProt P23975); experiment: inhibition of mIBG internalization in HEK-NET cells, LC-MS/MS quantification; type: cell-based
# T1 construct: gene SLC6A2; human NET expressed in transfected HEK293 cells
# [2] = substrate: N=C(N)NCc1cccc(I)c1; experiment: cells, lysate or membranes
# T1 sequence (P23975 whole entry): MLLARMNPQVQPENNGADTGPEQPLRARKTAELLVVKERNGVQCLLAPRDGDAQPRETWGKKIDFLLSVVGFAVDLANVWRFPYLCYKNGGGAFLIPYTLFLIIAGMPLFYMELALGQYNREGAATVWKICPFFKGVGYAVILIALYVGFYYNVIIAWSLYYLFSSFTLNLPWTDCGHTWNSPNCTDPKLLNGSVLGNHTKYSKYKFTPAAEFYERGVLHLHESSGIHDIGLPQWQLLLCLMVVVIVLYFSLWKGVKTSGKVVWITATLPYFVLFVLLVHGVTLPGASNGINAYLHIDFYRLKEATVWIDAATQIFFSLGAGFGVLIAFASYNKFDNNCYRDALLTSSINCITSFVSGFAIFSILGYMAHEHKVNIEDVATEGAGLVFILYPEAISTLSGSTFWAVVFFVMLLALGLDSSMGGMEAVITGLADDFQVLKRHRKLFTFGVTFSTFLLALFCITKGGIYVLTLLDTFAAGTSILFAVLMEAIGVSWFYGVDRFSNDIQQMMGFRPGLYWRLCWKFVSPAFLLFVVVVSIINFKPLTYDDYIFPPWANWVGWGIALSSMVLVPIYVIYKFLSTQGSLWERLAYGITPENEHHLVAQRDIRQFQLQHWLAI
molecule,measurement,setting,value
c1ccc(CCCN2CCN(CCOC(c3ccccc3)c3ccccc3)CC2)cc1 [GBR12935],IC50,[1],3.61 µM
B1,Km,[2],2.807 µM
